Converted amounts (≈) assume the structure as drawn. Like-named read-outs stand apart in the source and are kept apart here.
Assays:
TBEV, strain Hypr [1] = tested on: TBEV, strain Hypr
[2] = Cytotoxicity assay (Cell Counting Kit-8) in PS cells; settings: pig, porcine kidney stable (PS) cells
[3] = Cytotoxicity assay (Cell Counting Kit-8) in Vero cells; settings: African green monkey
[4] = Cytotoxicity assay (Cell Counting Kit-8) in UKF-NB-4 cells; settings: human, UKF-NB-4 neuroblastoma cells
[5] = Cytotoxicity assay (Cell Counting Kit-8) in Huh-7 cells; settings: human, Huh-7 hepatocarcinoma cells
[6] = Cytotoxicity assay (Cell Counting Kit-8) in HBCA cells; settings: human, human brain cortical astrocytes (HBCA)
TBEV, strain Hypr [7] = assay: microbe, parasite or virus in culture; settings: Tick-borne encephalitis virus, Vero
[8] = tested on: human lung carcinoma cells (A549); settings: cited from earlier work
WNV, strain Eg-101 [9] = assay: microbe, parasite or virus in culture; settings: West Nile virus, Vero
[10] = tested on: feline macrophage-like cells (fcwf-4); settings: fcwf-4 cells; cited from earlier work
[11] = tested on: rabbit lung cells (RL-33); settings: RL-33 cells; cited from earlier work
[12] = Cytotoxicity assay (Cell Counting Kit-8) in BHK-21 cells; settings: hamster, BHK-21 cells (baby hamster kidney)
[13] = tested on: endosomal acidification in Vero cells; assay: Analysis of endosomal acidification with acridine orange; assay type: cell-based, African Green Monkey; settings: 20 min
[14] = tested on: Mardin-Darby canine kidney cells (MDCK); settings: cited from earlier work
RVFV, strain H13/96 [15] = assay: microbe, parasite or virus in culture; settings: Rift Valley fever virus, Vero
ZIKV, strain Paraiba_01 [16] = assay: microbe, parasite or virus in culture; settings: Zika virus, Vero
ZIKV, strain Paraiba_01 [17] = tested on: ZIKV, strain Paraiba_01
RABV, strain CVS-11 [18] = tested on: RABV, strain CVS-11
RABV, strain CVS-11 [19] = assay: microbe, parasite or virus in culture; settings: Lyssavirus rabies, BHK-21, 72 h
WNV, strain Eg-101 [20] = tested on: WNV, strain Eg-101
ZIKV strain Paraiba_01 = assay: Mechanistic plaque number assay, ZIKV in Vero cells; assay type: cell-based, Zika virus; settings: diphyllin 1 100 µM, bafilomycin A1 100 nM
HSV-1, strain MacIntyre [21] = assay: microbe, parasite or virus in culture; settings: Human alphaherpesvirus 1, Vero
HSV-1 strain MacIntyre = assay: Mechanistic plaque number assay, HSV-1 in Vero cells; assay type: cell-based, herpes simplex virus type 1; settings: diphyllin 1 100 µM, bafilomycin A1 100 nM
[22] = Light sensitivity of the prepared sample; assay type: physicochemical; settings: solid sample; surface coloration, detrimental to antivirus activities
RVFV, strain H13/96 [23] = tested on: RVFV, strain H13/96
HSV-1, strain MacIntyre [24] = tested on: HSV-1, strain MacIntyre
[25] = 3 h p.i. treatment then washing, plaques counted at 120 h
[26] = compound kept for the whole 120 h p.i.
[27] = 3 h p.i. treatment then washing, plaques counted at 72 h
[28] = compound kept for the whole 72 h p.i.

Row | Compound | CC50 at 48 h [2] [µM] | CC50 at 48 h [3] [µM] | CC50 at 72 h [3] [µM] | CC50 at 144 h [3] [µM] | CC50 at 48 h [4] [µM] | CC50 at 48 h [5] [µM] | CC50 at 48 h [6] [µM] | SI (CC50/EC50) (TBEV, strain Hypr [1]) | EC50 (TBEV, strain Hypr [7]) [µM] | susceptibility of ZIKV (plaque number) (ZIKV strain Paraiba_01; [25]) | susceptibility of ZIKV (plaque number) (ZIKV strain Paraiba_01; [26]) | susceptibility of HSV-1 (plaque number) (HSV-1 strain MacIntyre; [27]) | susceptibility of HSV-1 (plaque number) (HSV-1 strain MacIntyre; [28]) | other results
1 | COc1cc2c(O)c3c(c(-c4ccc5c(c4)OCO5)c2cc1OC)C(=O)OC3 [commercial product, diphyllin] |  |  |  |  |  |  |  |  |  |  |  |  |  | EC50 (TBEV, strain Hypr [1]): 1.24 µM
2 | COc1cc2c(O[C@@H]3O[C@H](CO)[C@@H](O)[C@H](O)[C@H]3O)c3c(c(-c4ccc5c(c4)OCO5)c2cc1OC)C(=O)OC3 [Cleistanthin B 8, diphyllin-4-β-D-glucopyranoside, reference compound] | 78.9 | > 100 | > 100 | 80.7 | 6.17 | 3.96 | 2.08 | >18.08 | 5.53 |  |  |  |  | 
3 | COc1cc2c(O)c3c(c(-c4ccc5c(c4)OCO5)c2cc1OC)C(=O)OC3 [Diphyllin 1, 9-(3‣,4‣-methylenedioxyphenyl)-4-hydroxy-6,7-dimethoxynaphtho[2,3-c]furan-1(3H)-one] | 92.4 | > 100 | > 100 | 18.2 | 11.1 | 1.89 | 3.39 | >117.64 | 0.85 | susceptible | susceptible | not susceptible | highly susceptible | CC50 [8]: 24 µM; EC50 (WNV, strain Eg-101 [9]): 0.78 µM; CC50 [10]: 5.99 µM; CC50 [11]: 63 mg/L (≈ 166 µM); CC50 at 72 h [12]: > 100 µM; red fluorescence intensity of acidic endosomes (acridine orange) ([13]; 100 µM, versus DMSO control): much reduced; CC50 [14]: 3.48 µM; EC50 (RVFV, strain H13/96 [15]): 0.46 µM; EC50 (ZIKV, strain Paraiba_01 [16]): 0.54 µM; SI (CC50/EC50) (ZIKV, strain Paraiba_01 [17]): >185.19; SI (CC50/EC50) (RABV, strain CVS-11 [18]): >15.80; drop in RABV RNA copies/µL compared with RABV-infected control cells (RABV, strain CVS-11 [18]): 10^2; EC50 (RABV, strain CVS-11 [19]): 6.33 µM; SI (CC50/EC50) (WNV, strain Eg-101 [20]): >128.20; EC50 (HSV-1, strain MacIntyre [21]): 0.59 µM; light sensitivity [22]: rather light-sensitive; SI (CC50/EC50) (RVFV, strain H13/96 [23]): >217.39; SI (CC50/EC50) (HSV-1, strain MacIntyre [24]): >169.49; concentration at which complete HSV-1 suppression starts (HSV-1, strain MacIntyre [24]): ≥ 2.5 µM; EC50 (TBEV, strain Hypr [7]; 48 h): 1.04 µM
4 | CO/C1=C\C(C)=C\[C@@H](C)[C@@H](O)[C@@H](C)C/C(C)=C/C=C/[C@H](OC)[C@@H]([C@@H](C)[C@@H](O)[C@H](C)[C@@]2(O)C[C@@H](O)[C@H](C)[C@@H](C(C)C)O2)OC1=O [bafilomycin A1, reference compound] |  |  |  |  |  |  |  |  |  | susceptible | susceptible | not susceptible | not susceptible | red fluorescence intensity of acidic endosomes (acridine orange) ([13]; 100 nM, positive control): all the more obvious; viability at 48 h, 0.15 µM [3]: ~80%; EC50 (ZIKV, strain Paraiba_01 [16]; 48 h): 0.00244 µM; EC50 (HSV-1, strain MacIntyre [21]; 48 h): > 0.1 µM; effect on HSV-1 virus titers (HSV-1, strain MacIntyre [24]): no effect
